Experimental data published in patent US20090270381A1, “Non-steroidal progesterone receptor modulators” (priority 2007, published 2009).

Molecular target: T1, PR-A (Homo sapiens, UniProt P06401)
T1 construct: expressed in transfected cells
T1 sequence (P06401 1-769 isoform P06401-2): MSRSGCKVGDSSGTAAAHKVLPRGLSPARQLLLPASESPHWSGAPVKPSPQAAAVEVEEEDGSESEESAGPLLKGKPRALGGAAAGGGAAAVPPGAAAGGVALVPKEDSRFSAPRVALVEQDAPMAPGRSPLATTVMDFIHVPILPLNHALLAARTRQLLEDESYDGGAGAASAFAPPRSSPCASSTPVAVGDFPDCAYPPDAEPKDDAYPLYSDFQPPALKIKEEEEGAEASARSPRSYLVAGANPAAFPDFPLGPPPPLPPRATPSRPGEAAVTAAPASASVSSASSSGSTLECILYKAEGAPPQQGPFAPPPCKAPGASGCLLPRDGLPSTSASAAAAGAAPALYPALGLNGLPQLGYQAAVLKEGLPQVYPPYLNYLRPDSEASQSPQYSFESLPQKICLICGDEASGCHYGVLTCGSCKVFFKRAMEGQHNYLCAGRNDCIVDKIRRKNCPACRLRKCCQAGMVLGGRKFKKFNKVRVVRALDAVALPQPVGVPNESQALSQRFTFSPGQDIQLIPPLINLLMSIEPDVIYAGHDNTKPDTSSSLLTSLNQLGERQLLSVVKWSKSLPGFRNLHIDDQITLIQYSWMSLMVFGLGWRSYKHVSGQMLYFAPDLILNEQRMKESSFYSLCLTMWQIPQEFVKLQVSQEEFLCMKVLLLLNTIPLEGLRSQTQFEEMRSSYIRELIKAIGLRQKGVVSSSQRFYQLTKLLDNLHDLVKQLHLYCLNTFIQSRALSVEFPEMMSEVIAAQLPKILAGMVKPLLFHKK
Assay: Transactivation test on antagonistic activity at PR-A
Type: cell-based
Settings: for IC50: antagonism at PR-A; for Emax: read-out: Efficacy (antagonism at PR-A) [%]
Method: The transactivation assay is carried out as described in WO 02/054064.

Compound CC(=O)c1ccc(-c2ccccc2CC(O)(C(=O)Nc2ccc(C#N)c(Cl)c2)C2CCCCC2)cc1 (single isomer, unassigned) [Example 19a, rac-3-(4′-Acetylbiphenyl-2-yl)-N-(3-chloro-4-cyanophenyl)-2-cyclohexyl-2-hydroxy-propionamide] has an IC50 of 6.26 nM and an Emax of 108%.
For CS(=O)(=O)N1CCC(C(O)(Cc2ccccc2)C(=O)Nc2ccc(C#N)c(C(F)(F)F)c2)CC1 (single isomer, unassigned) [Example 103, N-(4-Cyano-3-trifluoromethylphenyl)-2-hydroxy-2-(1-methanesulfonyl-piperidin-4-yl)-3-phenylpropionamide], the IC50 was 48.8 nM and the Emax was 98.5%.
Work on CNS(=O)(=O)c1ccc(-c2cccc(C[C@](O)(C(=O)Nc3ccc(C#N)c(C(F)(F)F)c3)C3CCCCC3)c2)cc1 (stereo in doubt) [Example 63, N-(4-Cyano-3-trifluoromethylphenyl)-2-cyclohexyl-2-hydroxy-3-(4′-methyl-sulfamoylbiphenyl-3-yl)propionamide] yielded an IC50 of 26.3 nM and an Emax of 104%.
With N#Cc1ccc(NC(=O)C(O)(Cc2cccc(-c3cccc(C(=O)N4CCOCC4)c3)c2)C2CCN(C(=O)c3ccccc3)CC2)cc1C(F)(F)F (stereo not shown) [Example 162, 2-(1-Benzoylpiperidin-4-yl)-N-(4-cyano-3-trifluoromethylphenyl)-2-hydroxy-3-[3′-(morpholine-4-carbonyl)-biphenyl-3-yl]propionamide] the IC50 was 44.1 nM and the Emax was 99%.
Work on N#Cc1ccc(NC(=O)C(O)(Cc2cccc(-c3ccc(C(=O)CO)cc3)c2)C2CCCCC2)cc1C(F)(F)F (stereo not shown) [Example 78, N-(4-Cyano-3-trifluoromethylphenyl)-2-cyclohexyl-2-hydroxy-3-[4′-(2-hydroxy-acetyl)biphenyl-3-yl]propionamide] yielded an IC50 of 55.7 nM and an Emax of 101%.
Work on N#Cc1ccc(NC(=O)C(O)(Cc2ccccc2)C2CCN(S(=O)(=O)c3cccc(Cl)c3)CC2)cc1C(F)(F)F (single isomer, unassigned) [Example 111, 2-[1-(3-Chlorobenzenesulfonyl)-piperidin-4-yl]-N-(4-cyano-3-trifluoro-methylphenyl)-2-hydroxy-3-phenyl-propionamide] yielded an IC50 of 4.17 nM and an Emax of 103%.
For N#Cc1ccc(NC(=O)C(O)(Cc2cccc(O)c2)C2CCCCC2)cc1C(F)(F)F (single isomer, unassigned) [Example 200b, N-(4-Cyano-3-trifluoromethylphenyl)-2-cyclohexyl-2-hydroxy-3-(3-hydroxy-phenyl)propionamide], the IC50 was 5.66 nM and the Emax was 98.5%.
Work on CC(=O)Nc1cccc(-c2cccc(CC(O)(C(=O)Nc3ccc(C#N)c(C(F)(F)F)c3)C3CCCCC3)c2)c1 (stereo not shown) [Example 71, 3-(3′-Acetylaminobiphenyl-3-yl)-N-(4-cyano-3-trifluoromethylphenyl)-2-cyclohexyl-2-hydroxypropionamide] yielded an IC50 of 17.3 nM and an Emax of 100%.
Compound Cn1c(C#N)ccc1NC(=O)C(O)(Cc1ccccc1)C1CCCCC1 (stereo not shown) [Example 97, N-(5-Cyano-1-methyl-1H-pyrrol-2-yl)-2-cyclohexyl-2-hydroxy-3-phenyl-propionamide] has an IC50 of 55.6 nM and an Emax of 105%.
With CNC(=O)c1cccc(-c2cccc(CC(O)(C(=O)Nc3ccc(C#N)c(C(F)(F)F)c3)C3CCCCC3)c2)c1 (stereo not shown) [Example 68, N-Methyl-3′-[2-(4-cyano-3-trifluoro-methylphenylcarbamoyl)-2-cyclohexyl-2-hydroxyethyl]biphenyl-3-carboxamide] the IC50 was 5.13 nM and the Emax was 102%.
For CNC(=O)c1cccc(-c2cccc(CC(O)(C(=O)Nc3ccc(C#N)c(C(F)(F)F)c3)C3CCN(S(=O)(=O)c4cccc(F)c4)CC3)c2)c1 (stereo not shown) [Example 169, N-Methyl-3′-{2-(4-cyano-3-trifluoro-methylphenylcarbamoyl)-2-[1-(3-fluoro-benzenesulfonyl)-piperidin-4-yl]-2-hydroxyethyl}biphenyl-3-carboxamide], the IC50 was 1.7 nM and the Emax was 103%.
